Source: ChEMBL document CHEMBL4823288, “Discovery and Optimization of a Series of Benzofuran Selective ERAP1 Inhibitors: Biochemical and In Silico Studies” (ACS Med Chem Lett, 2021)
Blank lines part the entries; values can stand above or below the molecule they belong to.

How the values were obtained:
[1] = target: T1, Endoplasmic reticulum aminopeptidase 1 (Homo sapiens, UniProt Q9NZ08)
Description: Inhibition of wild type ERAP1 (unknown origin) using L-Rho-Succ-FKARKF as substrate preincubated for 15 mins followed by substrate addition and measured after 20 mins by flourescence assay

[2] = Microsomal stability in rat liver microsomes assessed as intrinsic clearance; format: ADME, Microsome; conditions: read-out: CLH
[3] = Permeability of compound across apical to basolateral side in human Caco2 cells; format: ADME, cell-based; conditions: Caco-2, read-out: permeability
Aminopeptidase N = Aminopeptidase N (Homo sapiens, UniProt P15144); experiment: Inhibition of APN (unknown origin) using Ala-AMC as substrate
Chain of Aminopeptidase N (P15144 whole entry): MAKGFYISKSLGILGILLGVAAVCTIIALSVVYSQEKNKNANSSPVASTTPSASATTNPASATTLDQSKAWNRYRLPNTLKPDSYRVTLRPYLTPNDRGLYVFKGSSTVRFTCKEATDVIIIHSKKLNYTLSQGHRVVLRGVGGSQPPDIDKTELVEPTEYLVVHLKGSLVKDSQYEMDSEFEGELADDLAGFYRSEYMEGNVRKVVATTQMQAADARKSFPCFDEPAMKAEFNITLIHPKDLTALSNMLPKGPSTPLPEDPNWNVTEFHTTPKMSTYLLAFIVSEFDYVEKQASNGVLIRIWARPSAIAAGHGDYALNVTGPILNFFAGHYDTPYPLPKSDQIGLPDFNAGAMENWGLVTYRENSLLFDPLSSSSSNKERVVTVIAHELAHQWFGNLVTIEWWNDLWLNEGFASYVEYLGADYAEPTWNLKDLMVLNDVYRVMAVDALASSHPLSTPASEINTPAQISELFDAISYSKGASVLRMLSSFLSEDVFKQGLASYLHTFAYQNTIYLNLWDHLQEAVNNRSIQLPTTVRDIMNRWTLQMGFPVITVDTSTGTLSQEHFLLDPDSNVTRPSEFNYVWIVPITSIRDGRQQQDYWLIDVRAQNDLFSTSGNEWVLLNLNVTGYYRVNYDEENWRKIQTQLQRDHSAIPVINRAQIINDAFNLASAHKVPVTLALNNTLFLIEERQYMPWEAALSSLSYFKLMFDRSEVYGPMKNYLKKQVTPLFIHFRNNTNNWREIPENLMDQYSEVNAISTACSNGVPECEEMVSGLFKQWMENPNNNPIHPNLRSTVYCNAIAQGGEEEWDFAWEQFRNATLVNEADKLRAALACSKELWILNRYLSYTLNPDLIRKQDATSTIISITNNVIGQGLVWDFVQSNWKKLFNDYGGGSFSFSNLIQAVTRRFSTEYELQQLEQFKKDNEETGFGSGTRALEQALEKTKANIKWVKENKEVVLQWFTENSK

[4] = Microsomal stability in mouse liver microsomes assessed as intrinsic clearance; format: ADME, Microsome; conditions: read-out: CLH
[5] = Microsomal stability in human liver microsomes assessed as intrinsic clearance; format: ADME, Microsome; conditions: read-out: CLH
Cytochrome P450 3A4 [6] = target: T2, Cytochrome P450 3A4 (Homo sapiens, UniProt P08684); experiment: Inhibition of CYP3A4 (unknown origin) using testosterone as substrate; format: ADME
T2 sequence (P08684 whole entry): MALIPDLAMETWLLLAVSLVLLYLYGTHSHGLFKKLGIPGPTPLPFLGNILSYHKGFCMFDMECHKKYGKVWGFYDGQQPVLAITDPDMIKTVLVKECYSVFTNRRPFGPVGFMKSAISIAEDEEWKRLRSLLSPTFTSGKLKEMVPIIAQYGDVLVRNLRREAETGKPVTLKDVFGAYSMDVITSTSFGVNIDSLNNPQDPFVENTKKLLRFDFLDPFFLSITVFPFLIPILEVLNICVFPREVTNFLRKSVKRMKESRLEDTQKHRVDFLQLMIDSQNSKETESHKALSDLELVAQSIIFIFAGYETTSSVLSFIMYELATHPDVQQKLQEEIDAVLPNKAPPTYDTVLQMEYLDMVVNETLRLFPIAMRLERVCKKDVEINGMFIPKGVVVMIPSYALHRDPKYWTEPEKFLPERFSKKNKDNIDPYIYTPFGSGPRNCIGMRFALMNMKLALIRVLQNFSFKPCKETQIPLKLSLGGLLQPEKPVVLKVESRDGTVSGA

[7] = target: T1, Endoplasmic reticulum aminopeptidase 1; conditions: dose 10.0 µM, time 30.0 min
Cytochrome P450 3A4 [8] = target: T2, Cytochrome P450 3A4; experiment: Inhibition of CYP3A4 (unknown origin) using midazolam as substrate; format: ADME
[9] = target: Endoplasmic reticulum aminopeptidase 2 (Homo sapiens, UniProt Q6P179); experiment: Inhibition of ERAP2 (unknown origin) using Arg-AMC as substrate
Chain of Endoplasmic reticulum aminopeptidase 2 (Q6P179 whole entry): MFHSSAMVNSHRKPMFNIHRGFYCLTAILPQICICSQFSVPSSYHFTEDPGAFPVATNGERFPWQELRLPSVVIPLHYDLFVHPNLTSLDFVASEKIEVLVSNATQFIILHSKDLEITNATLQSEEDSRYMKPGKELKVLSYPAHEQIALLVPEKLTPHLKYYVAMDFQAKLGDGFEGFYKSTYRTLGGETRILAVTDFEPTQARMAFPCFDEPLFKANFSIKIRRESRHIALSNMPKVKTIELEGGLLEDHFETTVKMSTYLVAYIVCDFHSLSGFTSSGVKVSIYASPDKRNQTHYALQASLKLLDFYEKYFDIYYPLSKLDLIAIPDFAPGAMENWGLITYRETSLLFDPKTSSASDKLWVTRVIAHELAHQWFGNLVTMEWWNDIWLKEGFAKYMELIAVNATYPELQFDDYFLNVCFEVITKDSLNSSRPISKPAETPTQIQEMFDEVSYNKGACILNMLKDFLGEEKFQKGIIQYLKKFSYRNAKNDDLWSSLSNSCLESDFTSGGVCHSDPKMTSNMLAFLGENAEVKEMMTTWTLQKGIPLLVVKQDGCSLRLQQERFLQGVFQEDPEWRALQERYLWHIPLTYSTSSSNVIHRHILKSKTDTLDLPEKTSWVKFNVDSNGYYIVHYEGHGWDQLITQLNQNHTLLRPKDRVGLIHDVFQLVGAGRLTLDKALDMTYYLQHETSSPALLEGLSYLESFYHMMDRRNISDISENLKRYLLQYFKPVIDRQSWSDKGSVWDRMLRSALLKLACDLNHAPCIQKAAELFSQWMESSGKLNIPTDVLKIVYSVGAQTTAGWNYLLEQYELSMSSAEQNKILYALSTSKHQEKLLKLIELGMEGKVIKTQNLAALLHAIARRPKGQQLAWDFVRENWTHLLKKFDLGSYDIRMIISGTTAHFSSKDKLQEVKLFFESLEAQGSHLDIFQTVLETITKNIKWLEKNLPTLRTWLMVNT

[10] = target: T1, Endoplasmic reticulum aminopeptidase 1; experiment: Inhibition of ERAP1 (unknown origin) using L-Rho-Succ-AFKARKF as substrate
[11] = target: T1, Endoplasmic reticulum aminopeptidase 1; experiment: Inhibition of ERAP1 (unknown origin) using L-Rho-Succ-FKARKF as substrate
[12] = Stability in human hepatocytes assessed as intrinsic clearance; format: ADME, cell-based, Hepatocyte
[13] = target: T1, Endoplasmic reticulum aminopeptidase 1; experiment: Inhibition of ERAP1 (unknown origin) using L-Rho-(D)-Q as substrate
[14] = substrate: CC(C)C[C@H](N)C(=O)Nc1ccc2c(c1)Oc1cc(NC(=O)[C@@H](CCC(N)=O)N[C@@H](CCCCN)C(=O)N[C@@H](C)C(=O)N[C@@H](CCCNC(=N)N)C(=O)N[C@@H](CCCCN)C(=O)N[C@@H](Cc3ccccc3)C(=O)O)ccc1C21OC(=O)c2ccccc21; conditions: Homo sapiens
Description: Inhibition of ERAP1 (unknown origin) using L-Rho-Succ-KARKF as substrate

[15] = substrate: CC(C)C[C@H](N)C(=O)Nc1ccc2c(c1)Oc1cc(NC(=O)[C@@H](CCC(N)=O)N[C@@H](Cc3ccccc3)C(=O)N[C@@H](CCCCN)C(=O)N[C@@H](C)C(=O)N[C@@H](CCCNC(=N)N)C(=O)N[C@@H](CCCCN)C(=O)N[C@@H](Cc3ccccc3)C(=O)O)ccc1C21OC(=O)c2ccccc21; conditions: Homo sapiens
[16] = substrate: CC(C)C[C@H](N)C(=O)Nc1ccc2c(c1)Oc1cc(NC(=O)[C@@H](CCC(N)=O)N[C@@H](C)C(=O)N[C@@H](Cc3ccccc3)C(=O)N[C@@H](CCCCN)C(=O)N[C@@H](C)C(=O)N[C@@H](CCCNC(=N)N)C(=O)N[C@@H](CCCCN)C(=O)N[C@@H](Cc3ccccc3)C(=O)O)ccc1C21OC(=O)c2ccccc21; conditions: Homo sapiens
[17] = substrate: CC(C)C[C@H](N)C(=O)Nc1ccc2c(c1)Oc1cc(NC(=O)[C@H](N)CCC(N)=O)ccc1C21OC(=O)c2ccccc21; conditions: Homo sapiens

IC50 [1]: 2.68 µM
Molecule: CCC(C)(NC(=O)c1cc(F)cc2cc(-c3ccc(C(F)(F)F)cc3)oc12)C(=O)O (configuration not stated)

IC50 [1]: 0.12 µM
IC50 (Aminopeptidase N): > 30 µM
IC50 [9]: > 30 µM
Molecule: O=C(NC1(C(=O)O)CCCCC1)c1cccc2cc(-c3ccc(Cl)cc3)oc12

IC50 [1]: 1.62 µM
Papp A→B [3]: 18.4 ×10⁻⁶ cm/s
ΔTm [7]: 0.5 °C
Molecule: O=C(NC1(C(=O)O)CCC1)c1cc(F)cc2cc(-c3ccc(C(F)(F)F)cc3)oc12

IC50 [1]: 0.262 µM
IC50 (Aminopeptidase N): > 30 µM
IC50 [9]: > 30 µM
Molecule: O=C(N[C@H](Cc1ccccc1)C(=O)O)c1cc(F)cc2cc(-c3ccc(Cl)cc3)oc12

IC50 [1]: 1.76 µM
IC50 (Aminopeptidase N): > 30 µM
IC50 [9]: > 30 µM
Molecule: O=C(N[C@@H](Cc1ccccc1)C(=O)O)c1cc(F)cc2cc(-c3ccc(Cl)cc3)oc12

Ki [11]: 151 µM
Molecule: CC(C)C[C@H](N)C(=O)Nc1ccc2c(c1)Oc1cc(NC(=O)[C@@H](CCC(N)=O)N[C@@H](Cc3ccccc3)C(=O)N[C@@H](CCCCN)C(=O)N[C@@H](C)C(=O)N[C@@H](CCCNC(=N)N)C(=O)N[C@@H](CCCCN)C(=O)N[C@@H](Cc3ccccc3)C(=O)O)ccc1C21OC(=O)c2ccccc21 (some centres not stated)

IC50 [1]: 0.034 µM
IC50 (Aminopeptidase N): > 30 µM
IC50 [9]: > 30 µM
Molecule: O=C(NC1(C(=O)O)CCCCC1)c1cc(F)cc2cc(-c3ccc(Cl)cc3)oc12

Ki [13]: 335 µM
Molecule: CC(C)C[C@H](N)C(=O)Nc1ccc2c(c1)Oc1cc(NC(=O)[C@H](N)CCC(N)=O)ccc1C21OC(=O)c2ccccc21 (some centres not stated)

Second part, the molecule before the results:

Molecule: CC(C)(NC(=O)c1cc(F)cc2cc(-c3ccc(Cl)cc3)oc12)C(=O)O
IC50 [1]: 0.698 µM
microsomal CLint [2]: 25 µL/min/mg
Papp A→B [3]: 10.8 ×10⁻⁶ cm/s
IC50 (Aminopeptidase N): > 30 µM
microsomal CLint [4]: < 20 µL/min/mg
microsomal CLint [5]: 33 µL/min/mg
IC50 (Cytochrome P450 3A4 [6]): > 30 µM
ΔTm [7]: 0.94 °C
IC50 (Cytochrome P450 3A4 [8]): > 30 µM
IC50 [9]: > 30 µM

Molecule: CC(C)(NC(=O)c1cc(F)cc2cc(-c3ccc(Cl)cc3)oc12)C(N)=O
IC50 [1]: > 10 µM

Molecule: CC(C)C[C@H](N)C(=O)Nc1ccc2c(c1)Oc1cc(NC(=O)[C@@H](CCC(N)=O)N[C@@H](C)C(=O)N[C@@H](Cc3ccccc3)C(=O)N[C@@H](CCCCN)C(=O)N[C@@H](C)C(=O)N[C@@H](CCCNC(=N)N)C(=O)N[C@@H](CCCCN)C(=O)N[C@@H](Cc3ccccc3)C(=O)O)ccc1C21OC(=O)c2ccccc21 (some centres not stated)
Ki [10]: 563 µM

Molecule: CC(C)(NC(=O)c1cccc2cc(-c3ccc(Cl)cc3)oc12)C(=O)O
IC50 [1]: 1.03 µM
IC50 (Aminopeptidase N): > 30 µM
IC50 [9]: > 30 µM

Molecule: O=C(NC1(C(=O)O)CCCC1)c1cc(F)cc2cc(-c3ccc(Cl)cc3)oc12
IC50 [1]: 0.099 µM
IC50 (Aminopeptidase N): > 30 µM
IC50 [9]: > 30 µM

Molecule: O=C(NC1(C(=O)O)Cc2ccccc2C1)c1cc(F)cc2cc(-c3ccc(Cl)cc3)oc12
IC50 [1]: 0.115 µM
IC50 (Aminopeptidase N): > 30 µM
IC50 [9]: > 30 µM

Molecule: O=C(NC1(C(=O)O)CC1)c1cc(F)cc2cc(-c3ccc(Cl)cc3)oc12
IC50 [1]: 1.12 µM
IC50 (Aminopeptidase N): > 30 µM
IC50 [9]: > 30 µM

Molecule: COC(=O)C(C)(C)NC(=O)c1cc(F)cc2cc(-c3ccc(Cl)cc3)oc12
IC50 [1]: > 10 µM

Molecule: CN(C(=O)c1cc(F)cc2cc(-c3ccc(Cl)cc3)oc12)C(C)(C)C(=O)O
IC50 [1]: 1.97 µM

Molecule: C[C@H](NC(=O)c1cc(F)cc2cc(-c3ccc(Cl)cc3)oc12)C(=O)O
IC50 [1]: 4.44 µM

Molecule: O=C(NC1(C(=O)O)CCCCC1)c1cccc2c(Br)c(-c3ccc(Cl)cc3)oc12
IC50 [1]: 0.151 µM
IC50 (Aminopeptidase N): > 30 µM
IC50 [9]: > 30 µM

Molecule: CC(C)(NC(=O)c1cccc2c(Br)c(-c3ccc(Cl)cc3)oc12)C(=O)O
IC50 [1]: 1.76 µM
IC50 (Aminopeptidase N): > 30 µM
IC50 [9]: > 30 µM

Molecule: CC(C)(NC(=O)c1cc(F)cc2cc(-c3ccc(Cl)cc3)oc12)c1nnn[nH]1
IC50 [1]: 0.275 µM

Molecule: CCC(C)(NC(=O)c1cc(F)cc2cc(-c3ccc(Cl)cc3)oc12)C(=O)O (configuration not stated)
IC50 [1]: 0.377 µM
microsomal CLint [2]: < 20 µL/min/mg
Papp A→B [3]: 8.5 ×10⁻⁶ cm/s
CLH [12]: 0.25 mL/h/10^6 cells
IC50 (Aminopeptidase N): > 30 µM
microsomal CLint [4]: 31 µL/min/mg
microsomal CLint [5]: 32 µL/min/mg
IC50 (Cytochrome P450 3A4 [6]): > 30 µM
ΔTm [7]: 0.82 °C
IC50 (Cytochrome P450 3A4 [8]): > 30 µM
IC50 [9]: > 30 µM

B1: Endoplasmic reticulum aminopeptidase 1 (Homo sapiens), Q9NZ08 (protein)
chain: MVFLPLKWSLATMSFLLSSLLALLTVSTPSWCQSTEASPKRSDGTPFPWNKIRLPEYVIPVHYDLLIHANLTTLTFWGTTKVEITASQPTSTIILHSHHLQISRATLRKGAGERLSEEPLQVLEHPRQEQIALLAPEPLLVGLPYTVVIHYAGNLSETFHGFYKSTYRTKEGELRILASTQFEPTAARMAFPCFDEPAFKASFSIKIRREPRHLAISNMPLVKSVTVAEGLIEDHFDVTVKMSTYLVAFIISDFESVSKITKSGVKVSVYAVPDKINQADYALDAAVTLLEFYEDYFSIPYPLPKQDLAAIPDFQSGAMENWGLTTYRESALLFDAEKSSASSKLGITMTVAHELAHQWFGNLVTMEWWNDLWLNEGFAKFMEFVSVSVTHPELKVGDYFFGKCFDAMEVDALNSSHPVSTPVENPAQIREMFDDVSYDKGACILNMLREYLSADAFKSGIVQYLQKHSYKNTKNEDLWDSMASICPTDGVKGMDGFCSRSQHSSSSSHWHQEGVDVKTMMNTWTLQKGFPLITITVRGRNVHMKQEHYMKGSDGAPDTGYLWHVPLTFITSKSDMVHRFLLKTKTDVLILPEEVEWIKFNVGMNGYYIVHYEDDGWDSLTGLLKGTHTAVSSNDRASLINNAFQLVSIGKLSIEKALDLSLYLKHETEIMPVFQGLNELIPMYKLMEKRDMNEVETQFKAFLIRLLRDLIDKQTWTDEGSVSERMLRSQLLLLACVHNYQPCVQRAEGYFRKWKESNGNLSLPVDVTLAVFAVGAQSTEGWDFLYSKYQFSLSSTEKSQIEFALCRTQNKEKLQWLLDESFKGDKIKTQEFPQILTLIGRNPVGYPLAWQFLRKNWNKLVQKFELGSSSIAHMVMGTTNQFSTRTRLEEVKGFFSSLKENGSQLRCVQQTIETIEENIGWMDKNFDKIRVWLQSEKLERM
Km [14]: 3.7 µM
Km [15]: 3.1 µM
Km [16]: 2 µM
Km [17]: 31.8 µM
